Experimental data: article PMC12004904, “Antifouling Activity of Xylemin, Its Structural Analogs, and Related Polyamines” (Chemistry & Biodiversity, 2025)
Converted amounts (≈) assume the structure as drawn.

How the values were obtained:
[1] = tested on: barnacle A. amphitrite; design: method as in ref 30 = [30]; 30 J. A. Ponasik , S. Conova , D. Kinghorn , W. A. Kinney , D. Rittschof , and B. Ganem , “ Pseudoceratidine, a Marine Natural Product with Antifouling Activity: Synthetic and Biological Studies ,” Te; conditions: cited from earlier work
[2] = tested on: cypris larvae of the barnacle Amphibalanus amphitrite; experiment: Antifouling (settlement inhibition) assay against barnacle cypris larvae; assay type: in vivo; conditions: 96 h; for EC50: Amphibalanus amphitrite; for EC50 / Antifouling activity EC50: cypris larvae, 24‐well plates, 25°C, dark, concentration reducing larval settlement to 50% of negative control; for Antifouling (settlement‐inhibitory) activity in words: up to 50 µg/mL
Description: First, the biological activities of xylemin (1) and its related compounds were assayed against the cypris larvae of the barnacle A. amphitrite. The larvae were treated using 24‐well polystyrene plates with 6 different concentrations of the compounds at 25°C in the dark for 96 h.
Evaluation of the biological activity and statistical analysis were conducted according to the previous work. Adult barnacles of A. amphitrite attached to stones were collected in Kobe, Japan, in 2023 and maintained in aquaria. Nauplii released from adults were cultured in filtered seawater (FSW) with penicillin/streptomycin (FUJIFILM Wako Pure Chemical Corp., Osaka, Japan) and fed Chaetoceros calcitrans at 25°C, under a 12 h light/12 h dark cycle. The larvae reached the cypris stage after 5–6 days. Cyprids were collected, rinsed with FSW, and stored in the dark at 5°C for 3–4 days until use. The effects of the compounds on barnacle cyprids were evaluated using 24‐well polystyrene plates (Corning Inc., Corning, NY, USA). Each compound was dissolved in MeOH, and the solution was diluted with the same solvent to concentrations of 0.01, 0.03, 0.1, 0.3, 1.0, and 5.0 µg/µL. Aliquots (10 µL) of the solutions were added to the wells of the polystyrene plates and air‐dried. Each well was charged with approximately ten cypris larvae and FSW (1.0 mL). The plates were incubated at 25°C in the dark for 96 h. […] Each concentration was tested in three wells, and the experiment was performed three times with different batches of larvae. The assay was conducted using CuSO4 (0.01, 0.03, 0.1, 0.3, 1.0, 3.0, and 10 µg) as a positive control. An assay without any compound was used as a negative control. Settlement inhibition was calculated based on negative control settlement. Antifouling activity (EC50) and toxicity (LC50) were calculated using probit analyses. EC50 indicates the concentration that reduces the larval settlement to 50% of the negative control. LC50 indicates the concentration that causes 50% mortality.

[3] = tested on: thermospermine synthase ACAULIS5 (ACL5); design: method as in ref 25 = [25]; 25 H. Takamura , H. Motose , T. Otsu , et al., “ Chemical Synthesis and Biological Effect on Xylem Formation of Xylemin and Its Analogues ,” European Journal of Organic Chemistry 2020 ( 2020 ): 2745 –; conditions: cited from earlier work
[4] = tested on: xylem formation; design: method as in PMID 26879262; conditions: cited from earlier work
[5] = tested on: zooplankton Artenia larvae; design: method as in PMID 27919420; conditions: cited from earlier work

SMILES | EC50 [2] | Antifouling (settlement‐inhibitory) activity in words [2] | further results
O=C(O)c1cc(Br)c(Br)[nH]1 [4,5‐dibromopyrrole‐2‐carboxylic acid] |  |  | Antifouling activity EC50 [1]: 15 µg/mL
CCCNCCCCN [Compound 1, N‐(4‐aminobutyl)propylamine] | 4.25 µg/mL (≈ 32.6 µM) |  | Expression of ACL5 [3]: promoted the expression; Xylem formation / differentiation [4]: enhanced xylem formation
CCCNCCCCNC(=O)OC(C)(C)C [Compound 2] | 6.11 µg/mL (≈ 26.5 µM) |  | 
CCC(CC)NCCCCN [Compound 3, N‐(4‐aminobutyl)‐1‐ethylpropylamine] | > 50 µg/mL |  | 
NCCCCNC1CCCC1 [Compound 4, N‐(4‐aminobutyl)cyclopentylamine] | > 50 µg/mL | no inhibitory activity | Xylem formation / differentiation [4]: significant activity in promoting xylem differentiation
NCCCCNC1CCCCC1 [Compound 5, N‐(4‐aminobutyl)cyclohexylamine] | > 50 µg/mL | lacked antifouling activity | 
NCCCCNC1CCCCCC1 [Compound 6, N‐(4‐aminobutyl)cycloheptylamine] | > 50 µg/mL | lacked antifouling activity | 
NCCCCN [Compound 7, putrescine, reference compound] | > 50 µg/mL | non‐antifouling activity | 
NCCCCNCCCN [Compound 8, spermidine, reference compound] |  | did not exhibit antifouling activity | Antifouling activity EC50 [2]: >50 µg/mL
NCCCNCCCCNCCCN [Compound 9, spermine, reference compound] |  |  | Antifouling activity EC50 [2]: >50 µg/mL
NCCCCNCCCNCCCN [Compound 10, thermospermine, reference compound] |  |  | Antifouling activity EC50 [2]: >50 µg/mL
CN(C)C(=O)Nc1ccc(Cl)c(Cl)c1 [Diuron] |  |  | LC50 (50% lethal concentration) [5]: 30.6 µg/mL (≈ 131 µM)
NCCCCNC1CCCC1 [N‐(4‐aminobutyl)cyclopentylamine] |  |  | Expression of ACL5 [3]: promoted the expression; Xylem formation / differentiation [4]: enhanced xylem formation
NCCCCNCCCN [spermidine] | > 50 µg/mL |  | 
NCCCNCCCCNCCCN [spermine] | > 50 µg/mL |  | 
NCCCCNCCCNCCCN [thermospermine] | > 50 µg/mL |  | 
